Measurements from PubChem BioAssay (NCI).
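Cultured in 96-well plates, cells were exposed to test compound for 48 hours across five concentrations. GI50 is the concentration that inhibits growth by half. Definition used: TGI = concentration required for complete inhibition of growth.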

How the values were obtained:
Assay in all cases: NCI tumour cell line growth inhibition, 48 h
HT29 colon = test system: HT29 colon
RXF 393 renal = test system: RXF 393 renal
COLO 205 colon = test system: COLO 205 colon
MDA-MB-231 breast = test system: MDA-MB-231 breast
MALME-3M melanoma = test system: MALME-3M melanoma
HCT-15 colon = test system: HCT-15 colon
HOP-62 NSCLC = test system: HOP-62 NSCLC
CCRF-CEM leukemia = test system: CCRF-CEM leukemia
U251 CNS = test system: U251 CNS
SNB-19 CNS = test system: SNB-19 CNS

## Cc1c(N=Cc2ccc(N(CCC#N)CCC#N)cc2)c(=O)n(-c2ccccc2)n1C
HT29 colon
  TGI: > 100 µM
RXF 393 renal
  TGI: 92.1 µM
COLO 205 colon
  TGI: > 100 µM
MDA-MB-231 breast
  TGI: > 100 µM
MALME-3M melanoma
  TGI: > 100 µM
HCT-15 colon
  TGI: > 100 µM
HOP-62 NSCLC
  TGI: 86.1 µM
CCRF-CEM leukemia
  TGI: > 100 µM
U251 CNS
  TGI: > 100 µM
SNB-19 CNS
  TGI: > 100 µM

## OCC(O)C(O)C(O)/C=N/Nc1nc2ccccc2nc1-c1ccccc1 (centres undefined)
HT29 colon
  GI50: > 100 µM
  TGI: > 100 µM
RXF 393 renal
  GI50: > 100 µM
  TGI: > 100 µM
COLO 205 colon
  GI50: 51.6 µM
  TGI: > 100 µM
MDA-MB-231 breast
  GI50: 64.1 µM
  TGI: > 100 µM
MALME-3M melanoma
  GI50: > 100 µM
  TGI: > 100 µM
HCT-15 colon
  GI50: 86.3 µM
  TGI: > 100 µM
HOP-62 NSCLC
  GI50: > 100 µM
  TGI: > 100 µM
CCRF-CEM leukemia
  GI50: 32.2 µM
  TGI: > 100 µM
U251 CNS
  GI50: 77.9 µM
  TGI: > 100 µM
SNB-19 CNS
  GI50: > 100 µM
  TGI: > 100 µM

## OCc1ccc(N(CCN2CCCC2)Cc2ccc(F)cc2)cc1Cl
HT29 colon
  GI50: 15.6 µM
  TGI: 32.8 µM
RXF 393 renal
  GI50: 23.3 µM
  TGI: 67.1 µM
COLO 205 colon
  GI50: 8.66 µM
  TGI: 21.5 µM
MDA-MB-231 breast
  GI50: 16 µM
  TGI: 38.1 µM
MALME-3M melanoma
  GI50: 22.3 µM
  TGI: 40.2 µM
HCT-15 colon
  GI50: 18.6 µM
  TGI: 50.1 µM
HOP-62 NSCLC
  GI50: 17.9 µM
  TGI: 42.1 µM
CCRF-CEM leukemia
  GI50: 23.8 µM
  TGI: 91.5 µM
U251 CNS
  GI50: 15.5 µM
  TGI: 32.4 µM
SNB-19 CNS
  GI50: 25 µM
  TGI: 82.1 µM

## CCCN(CCSSCCNc1nc(N(C)O)nc(N(C)O)n1)c1nc(N(C)O)nc(N(C)O)n1
HT29 colon
  GI50: 7.81 µM
  TGI: > 100 µM
RXF 393 renal
  GI50: 81 µM
  TGI: > 100 µM
COLO 205 colon
  GI50: 2.9 µM
  TGI: > 100 µM
MDA-MB-231 breast
  GI50: 18.5 µM
  TGI: > 100 µM
MALME-3M melanoma
  GI50: 6.29 µM
  TGI: > 100 µM
HCT-15 colon
  GI50: 4.28 µM
  TGI: > 100 µM
HOP-62 NSCLC
  GI50: 4.49 µM
  TGI: > 100 µM
CCRF-CEM leukemia
  GI50: 2.24 µM
  TGI: > 100 µM
U251 CNS
  GI50: 5.35 µM
  TGI: > 100 µM
SNB-19 CNS
  GI50: 4.15 µM
  TGI: > 100 µM

## CN(C)CCCn1c2nc(=O)[nH]c(=O)c-2nc2cc(Cl)c(Cl)cc21
HT29 colon
  GI50: 2.13 µM
  TGI: 11.9 µM
RXF 393 renal
  GI50: 13.2 µM
  TGI: 26.3 µM
COLO 205 colon
  GI50: 1.35 µM
  TGI: 2.83 µM
MDA-MB-231 breast
  GI50: 3.88 µM
  TGI: 14.9 µM
MALME-3M melanoma
  GI50: 9.28 µM
  TGI: 26.8 µM
HCT-15 colon
  GI50: 4.03 µM
  TGI: 21.5 µM
HOP-62 NSCLC
  GI50: 4.14 µM
  TGI: 15.9 µM
CCRF-CEM leukemia
  GI50: 3.81 µM
  TGI: 18.7 µM
U251 CNS
  GI50: 3.08 µM
  TGI: 10.5 µM
SNB-19 CNS
  GI50: 12.7 µM
  TGI: 26 µM

## CC1(C)CC2(C)CC1CC2NC(=O)CCN1CCOCC1 (centres undefined)
HT29 colon
  TGI: > 100 µM
RXF 393 renal
  TGI: > 100 µM
COLO 205 colon
  TGI: > 100 µM
MDA-MB-231 breast
  TGI: > 100 µM
MALME-3M melanoma
  TGI: > 100 µM
HOP-62 NSCLC
  TGI: > 100 µM
CCRF-CEM leukemia
  TGI: > 100 µM
U251 CNS
  TGI: > 100 µM
SNB-19 CNS
  TGI: > 100 µM
